Results: PMC7306898, “Concentration-Dependent Activity of Hydromethylthionine on Clinical Decline and Brain Atrophy in a Randomized Controlled Trial in Behavioral Variant Frontotemporal Dementia” (Journal of Alzheimer's Disease, 2020)
Like-named read-outs stand apart in the source and are kept apart here.

Assays:
bvFTD patients [1] = test: Addenbrookes Cognitive Examination – III (ACE-III), 52-week Phase III trial; type: in vivo, human
Description: (§1) The two doses were provided in identical blister packages as visually identical oral tablets to be taken for up to 52 weeks. The primary outcome was the Addenbrookes Cognitive Examination – Revised (ACE-R). The Functional Activities Questionnaire (FAQ) and reduction in progression of whole brain atrophy were alternative co-primary outcomes. Other outcomes included: Modified Alzheimer’s Disease Cooperative Study – Clinical Global Impression of Change (Modified-CGIC) determined by a third independent rater; Frontotemporal Dementia Rating Scale (FRS); MMSE (from MMSE items incorporated into ACE-R); Addenbrookes Cognitive Examination – III (a revised version of ACE-R which excludes MMSE items subject to copyright restrictions); change in brain volume measured by MRI in frontal and temporal lobes (FTV) and lateral ventricles (LVV); and the effect of hydromethylthionine in patients with known genetic mutations associated with bvFTD. Blood was collected prospectively for the purpose of population PK analyses.
(§2) The primary analyses were specified as a mixed model, repeated-measures analysis with an unstructured covariance matrix and no imputation for missing data. […]

[2] = tested on: P-glycoprotein (P-gp) transporter; design: method as in Investigator's Brochure; conditions: ref Investigator's Brochure; cited from earlier work
bvFTD patients [3] = test: Frontotemporal Dementia Rating Scale (FRS), 52-week Phase III trial; type: in vivo, human
Description: as §1, §2

red blood cells = conditions: cited from earlier work
bvFTD patients [4] = test: Lateral ventricular volume (LVV) change by MRI; type: in vivo, human; conditions: Patients receiving 8 mg/day, vs Cmax,ss ≤[…], 52 weeks
Description: as §1
MRI scans were obtained at screening and weeks 16, 32, and 52. The acquisition protocol was standardized across sites and all data were centrally collected, quality-controlled, and analyzed by the imaging core laboratory (Bioclinica). MRI data included a 3D sagittal T1-weighted sequence (using parameters compatible with the ADNI protocol) which was used for all volumetric analyses. […]

[5] = Population PK: plasma-modeled parent MT Cmax,ss; type: in vivo, human; conditions: for Cmax: both sexes, human, plasma, oral
Procedure: Blood samples for assessment of parent MT, N-desmethyl MT, and total MT (sum of parent MT and a labile LMT conjugate), were collected from each patient on the first treatment visit (two samples: pre-dose and approximately 3.5 h after the dose) and at each subsequent on-treatment visit. The protocol specified that PK plasma sampling was to be conducted only at sites with adequate facilities (i.e., a refrigerated centrifuge and adequate capability to freeze samples reliably). Blinded analyses were conducted at the University of Aberdeen GLP Test Facility. MT levels in plasma were measured using liquid chromatography-tandem mass spectrometry assay. The method was validated for use in the Phase III studies over the range 0.2 to 10 ng/ml. […] Model development and estimation of steady state maximum plasma concentration (Cmax,ss) were determined independently by the Institute of Clinical Pharmacodynamics (ICPD, NY, USA). Cmax,ss estimates using a model validated in Phase I studies were based on in-clinic plasma concentration data obtained on Day 1 when the dose-sampling interval was accurately recorded. The percentage of patients with Day 1 exposure levels below the lower calibration limit of the assay was used to define a proxy for placebo in post-hoc binary statistical comparisons of patients with low and high exposure to the drug with a view to informing the design of a future placebo-controlled trial. Change in ACE-R, ACE-III, FAQ, MMSE, Modified-CGIC, FRS, whole brain volume (WBV), lateral ventricular volume (LVV), and frontotemporal volume (FTV), as well as UPDRS Part III, were expressed as a function of Cmax,ss estimates grouped into four groups described in the results section. Cmax,ss values outside 3x the interquartile range were excluded from determination of concentration-response relationships, but were included in inferential statistical analyses.

bvFTD patients [6] = test: UPDRS Part III motor safety outcome, 52-week Phase III trial; type: in vivo, human
Procedure: The primary analyses were specified as a mixed model, repeated-measures analysis with an unstructured covariance matrix and no imputation for missing data. The model included visit (three levels corresponding to assessments at weeks 16, 32, and 52), treatment group (two levels, 4 mg or 100 mg twice a day), a visit by treatment group interaction term, use of AD-labelled medications (two levels, using or not using), geographic region (three levels: North America, Asia/Australia, Europe), and baseline value of the variable analyzed. The individual comparisons were implemented through contrasts. The Bonferroni-Holm correction was used to take account of multiplicity arising from alternative co-primary outcomes (FAQ and whole brain atrophy). We used the same method for all secondary analyses in predefined gated sequences such that no further adjustment of alpha (0.05) was needed.
Blood samples for assessment of parent MT, N-desmethyl MT, and total MT (sum of parent MT and a labile LMT conjugate), were collected from each patient on the first treatment visit (two samples: pre-dose and approximately 3.5 h after the dose) and at each subsequent on-treatment visit. […] MT levels in plasma were measured using liquid chromatography-tandem mass spectrometry assay. […] Model development and estimation of steady state maximum plasma concentration (Cmax,ss) were determined independently by the Institute of Clinical Pharmacodynamics (ICPD, NY, USA). Cmax,ss estimates using a model validated in Phase I studies were based on in-clinic plasma concentration data obtained on Day 1 when the dose-sampling interval was accurately recorded. […] Change in ACE-R, ACE-III, FAQ, MMSE, Modified-CGIC, FRS, whole brain volume (WBV), lateral ventricular volume (LVV), and frontotemporal volume (FTV), as well as UPDRS Part III, were expressed as a function of Cmax,ss estimates grouped into four groups described in the results section. […]

bvFTD patients [7] = test: MMSE, 52-week Phase III trial; type: in vivo, human
Description: as §1, §2

[8] = 8 mg/day (n = 110), modeled change from baseline at 52 weeks
[9] = 200 mg/day (n = 104) vs 8 mg/day, 52 weeks

## CN(C)c1ccc2c(c1)Sc1cc(N(C)C)ccc1N2 [hydromethylthionine, leuco-methylthioninium bis(hydromethanesulphonate)]
bvFTD patients [1]; [8]
  ACE-III: Decline±SEM for LMTM 8 mg/day group: –10.70±1.55
bvFTD patients [1]; [9]
  ACE-III: Difference±SEM from LMTM 8 mg/day for 200 mg/day: 0.44±2.27
[2]
  effect of coadministration on digoxin (P-gp substrate): decreased concentrations
  induction of P-glycoprotein (P-gp) transporter: w eak in ducer
bvFTD patients [3]; [8]
  FRS: Decline±SEM for LMTM 8 mg/day group: –0.1240±0.0136
bvFTD patients [3]; [9]
  FRS: Difference±SEM from LMTM 8 mg/day for 200 mg/day: 0.0075±0.0206
Red blood cells
  efficiency of uptake into red blood cells relative to MTC: 20 fold
bvFTD patients [4]
  LVV: Difference±SEM for Cmax,ss > […]: –4.12±1.06 cm^3
[5]; 200 mg/day
  Plasma-modeled parent MT Cmax,ss, Range: 6.800 to 14.235 ng/mL
[5]; 80 patients receiving 200 mg/day
  plasma levels at 200 mg/day relative to the highest level seen at 8 mg/day: 16 fold
[5]; 8 mg/day, 8 mg/day – Group 1, read-out: Plasma-modeled parent MT Cmax,ss, Mean (SD)
  Cmax: 0.321 ng/mL
[5]; 8 mg/day, 8 mg/day – Group 1, read-out: Plasma-modeled parent MT Cmax,ss, Range
  Cmax: 0.281 to 0.346 ng/mL
[5]; 8 mg/day, 8 mg/day – Group 2, read-out: Plasma-modeled parent MT Cmax,ss, Mean (SD)
  Cmax: 0.355 ng/mL
[5]; 8 mg/day, 8 mg/day – Group 2, read-out: Plasma-modeled parent MT Cmax,ss, Range
  Cmax: 0.346 to 0.372 ng/mL
[5]; 8 mg/day, 8 mg/day – Group 3, read-out: Plasma-modeled parent MT Cmax,ss, Mean (SD)
  Cmax: 0.387 ng/mL
[5]; 8 mg/day, 8 mg/day – Group 3, read-out: Plasma-modeled parent MT Cmax,ss, Range
  Cmax: 0.373 to 0.409 ng/mL
[5]; 8 mg/day, 8 mg/day – Group 4, read-out: Plasma-modeled parent MT Cmax,ss, Mean (SD)
  Cmax: 0.47 ng/mL
[5]; 8 mg/day, 8 mg/day – Group 4, read-out: Plasma-modeled parent MT Cmax,ss, Range
  Cmax: 0.413 to 0.583 ng/mL
[5]; 200 mg/day, read-out: Plasma-modeled parent MT Cmax,ss, Mean (SD)
  Cmax: 9.04 ng/mL
[5]; 200 mg/day, read-out: Plasma-modeled parent MT Cmax,ss, Range
  Cmax: 6.8 to 14.2 ng/mL
bvFTD patients [6]; [8]
  UPDRS – part III: Decline±SEM for LMTM 8 mg/day group: 3.90±1.06
bvFTD patients [6]; 8 mg/day, plasma levels above vs below […] threshold
  reduction in decline, UPDRS: 75%
bvFTD patients [6]; [9]
  UPDRS – part III: Difference±SEM from LMTM 8 mg/day for 200 mg/day: –1.40±1.61
bvFTD patients [7]; [8]
  MMSE: Decline±SEM for LMTM 8 mg/day group: –3.41±0.53
bvFTD patients [7]; [9]
  MMSE: Difference±SEM from LMTM 8 mg/day for 200 mg/day: –0.12±0.80
